In patent publication US20240398806A1, “Compositions For and Methods of Treating and/or Preventing Pain” (Duke University, priority 2021, published 2024):

Molecular target: NTSR1 (Homo sapiens, UniProt P30989)
Assay: Cellular assay of β-arrestin-2 translocation in cells expressing NTSR1
Type: cell-based
Design: expressed in transfected cells; host or cells: HEK293T cell membranes
Experimental: First, using cellular assays, whether IND candidates such as SBI-810 are similar or better than SBI-553 as β-arrestin biased agonist at NTSR1. is assessed. The chemical entities used in this work were synthesized and validated. However, routine validation of the profile of these compounds is performed routinely using both cellular and in vivo assays. For example, HEK293 cells that express either the NTSR1 or NTSR2 are used to assess the functional profile of the various chemical probes. In addition, a series of genetically engineered mouse lines are used to provide an in vivo validation of novel chemical entities for their abilities to module behaviors in these animals.
Fourth, cellular assays are used to establish that IND ready analogs like SBI-810 are still selective for the NTSR1 rather than NTSR2. The specificity of the lead compounds toward NTSR1. NTSR2. and β-arrestin-2 are tested in respective cellular assays. More specifically, cells expressing either NTSR1 or NTSR2 are used to assess the function of various compound. […] This translocation is not observed in cells expressing NTSR2.
Fourth, genetically engineered mice are used to assess the effects and mechanisms of novel ligands. The specificity of the lead compounds toward NTSR1, NTSR2, and β-arrestin-2 dependent signaling is examined. […]

Sequence of NTSR1 (P30989 whole entry): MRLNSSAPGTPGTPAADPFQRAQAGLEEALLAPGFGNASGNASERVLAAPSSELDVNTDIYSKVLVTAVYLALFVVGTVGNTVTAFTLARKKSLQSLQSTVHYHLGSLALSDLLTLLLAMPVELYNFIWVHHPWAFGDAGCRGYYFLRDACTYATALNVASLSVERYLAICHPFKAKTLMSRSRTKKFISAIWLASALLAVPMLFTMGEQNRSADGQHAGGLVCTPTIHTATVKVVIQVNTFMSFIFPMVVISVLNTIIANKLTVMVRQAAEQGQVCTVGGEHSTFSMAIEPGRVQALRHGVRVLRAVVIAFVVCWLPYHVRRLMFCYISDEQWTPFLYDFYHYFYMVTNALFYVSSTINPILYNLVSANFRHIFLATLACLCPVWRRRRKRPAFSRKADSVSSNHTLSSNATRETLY

COc1ccccc1C1CCN(c2nc(C3(F)CC3)nc3ccc(N(C)CCO)cc23)CC1 [SBI-553]
Translocation of β-arrestin-2 to intracellular compartments: demonstrate translocation of β-arrestin-2
